{"source": "paper PMC12382614", "about": "“(Oxidopyridyl)Porphyrins of Different Lipophilicity: Photophysical Properties, ROS Production and Phototoxicity on Melanoma Cells Under CoCl2-Induced Hypoxia” (Antioxidants, 2025)", "assay": "Laser flash photolysis (LFP), triplet excited state properties", "assay_type": "physicochemical", "conditions": "MeOH", "method": "Laser flash photolysis (LFP) was performed using an LP980 transient absorption spectrometer (Edinburgh Instruments) equipped with a continuous beam (or pulse mode) Xenon lamp passing through the sample. A nanosecond Nd:YAG laser (Quantel, Q-smart 450, 5 ns pulse duration, 10 Hz, excitation wavelength 355 nm) was then used to excite the sample perpendicular to the lamp beam. The laser beam energy was adjusted to below 5 mJ. The ground state absorbance of the porphyrins in MeOH was adjusted to 0.20–0.25 at 355 nm (the laser excitation wavelength) and the solutions were purged with high-purity N2 for at least 15 min prior to taking the measurements. The samples were prepared for kq determination in an air atmosphere that was N2-purged for 15 min and O2-purged for 15 min before the measurements were taken. The ground state absorption spectra of the samples were also recorded after purging the sample with N2 or O2, and after transient absorption (TAS) measurements were taken to track the differences in every step of the measurement process to ensure that no photoproducts were formed. All measurements were performed at 25 °C in 1 cm quartz cuvettes. Laser flash photolysis was used to measure the kinetics of triplet state depopulation (τT) and triplet-triplet absorption spectra, and to calculate the intersystem crossing quantum yield (ΦISC) and quenching rate constants of triplet excited states by molecular oxygen (kq). To calculate ΦISC, the first step was the calculation of the molar absorption coefficient of the triplet state using the singlet depletion method, completing the first step according to Equation (S2). The ΦISC values were estimated by using a comparative method with TPP (ΦISC = 0.87 in toluene) as the standard. The ΦISC was calculated according to Equation (S3). Triplet excited state lifetimes were determined by fitting the triplet decays to the equation for the mixed first- and second-order decay, as previously described, and the quenching rate constant of a triplet excited state by molecular oxygen was calculated using the Stern–Volmer equation (Equation (S4))."}
{"smiles": "CCCCCCCCCCCCCCCCCC(=O)Nc1ccc(-c2c3nc(c(-c4ccc[n+]([O-])c4)c4ccc([nH]4)c(-c4ccc[n+]([O-])c4)c4nc(c(-c5ccc[n+]([O-])c5)c5ccc2[nH]5)C=C4)C=C3)cc1", "note": "[TOPyP3-C17H35, 5-(4-Octadecanamidophenyl)-10,15,20-tris(1-oxido-3-pyridyl)porphyrin]", "values": [{"measurement": "τT (lifetime of 3PS*)", "value": 0.96, "unit": "ms"}, {"measurement": "t from transient absorption kinetics at 450 nm", "setting": "N2, 355 nm laser excitation, Figure S9 inset", "value": 987, "unit": "µs"}, {"measurement": "τT (lifetime of the triplet excited state)", "setting": "N2-purged, 25 °C", "value": "960 ± 30", "unit": "μs"}, {"measurement": "kq (O2) (quenching rate constant of the triplet excited state by O2)", "setting": "Stern–Volmer", "value": "1.4e+09", "unit": "M⁻¹ s⁻¹"}, {"measurement": "ΦISC (quantum yield of intersystem crossing)", "setting": "comparative method with TPP, estimated", "value": 0.51}, {"measurement": "εT-T (molar absorption coefficient of the triplet state)", "setting": "singlet depletion method", "value": "58 300 M^−1cm^−1"}]}
